What all share (type): functional
Test [1] deals with Escherichia coli. As to the kind of experiment: Antibacterial activity against Escherichia coli CCUG assessed as bacterial growth inhibition by agar diffusion assay.
Test [2] concerns Acinetobacter baumannii. As to the kind of experiment: Synergistic antibacterial activity against Acinetobacter baumannii ATCC 17978 in presence of 0.5 times MIC of colistin by microdilution broth method. On the technique in general: Dilution methods test growth across graded concentrations, often in twofold steps.
The test system of test [3] is Escherichia coli. As to the kind of experiment: Synergistic antibacterial activity against Escherichia coli CCUG in presence of 0.5 times MIC of colistin by microdilution broth method.
Test [4] relates to Klebsiella pneumoniae. As to the kind of experiment: Antibacterial activity against Klebsiella pneumoniae ATCC 13833 assessed as bacterial growth inhibition by agar diffusion assay. On the technique in general: A growth-free zone around the sample is the usual read-out of agar diffusion tests.
In test [5] the test system is Acinetobacter baumannii. As to the kind of experiment: Potentiation of colistin-induced antibacterial activity against Acinetobacter baumannii ATCC 17978 assessed as fold reduction in colistin MIC by microdilution broth method relative to colistin MIC.
The subject of test [6] is Escherichia coli. As to the kind of experiment: Potentiation of colistin-induced antibacterial activity against Escherichia coli CCUG assessed as fold reduction in colistin MIC in by microdilution broth method relative to colistin MIC.
Test [7] has as its system Acinetobacter baumannii. As to the kind of experiment: Antibacterial activity against Acinetobacter baumannii ATCC 17978 assessed as bacterial growth inhibition by agar diffusion assay.
Test [8] relates to Klebsiella pneumoniae. As to the kind of experiment: Synergistic antibacterial activity against Klebsiella pneumoniae ATCC 13833 in presence of 0.5 times MIC of colistin by microdilution broth method.
Test [9] relates to Pseudomonas aeruginosa. As to the kind of experiment: Antibacterial activity against Pseudomonas aeruginosa ATCC 27853 assessed as bacterial growth inhibition by agar diffusion assay.
In test [10] the test system is Klebsiella pneumoniae. As to the kind of experiment: Potentiation of colistin-induced antibacterial activity against Klebsiella pneumoniae ATCC 13833 assessed as fold reduction in colistin MIC by microdilution broth method relative to colistin MIC.
In test [11] the test system is Pseudomonas aeruginosa. As to the kind of experiment: Antibacterial activity against multidrug-resistant Pseudomonas aeruginosa VR-143/97 clinical isolate assessed as bacterial growth inhibition by agar diffusion assay.
Test [12] deals with Acinetobacter baumannii. As to the kind of experiment: Antibacterial activity against Acinetobacter baumannii AC-54/97 clinical isolate assessed as bacterial growth inhibition by agar diffusion assay.
In test [13] the test system is Enterococcus faecalis. As to the kind of experiment: Antibacterial activity against Enterococcus faecalis ATCC 29212 assessed as bacterial growth inhibition by agar diffusion assay.
The test system of test [14] is Escherichia coli. As to the kind of experiment: Antibacterial activity against multidrug-resistant Escherichia coli Z25 clinical isolate assessed as bacterial growth inhibition by agar diffusion assay.
The test system of test [15] is Streptococcus pyogenes. As to the kind of experiment: Antibacterial activity against Streptococcus pyogenes ATCC 12344 assessed as bacterial growth inhibition by agar diffusion assay.
The test system of test [16] is Staphylococcus aureus. As to the kind of experiment: Antibacterial activity against Staphylococcus aureus ATCC 25923 assessed as bacterial growth inhibition by agar diffusion assay.
For test [17], the system named is Enterobacter cloacae. As to the kind of experiment: Antibacterial activity against multidrug-resistant Enterobacter cloacae VA 417/02 clinical isolate assessed as bacterial growth inhibition by agar diffusion assay.
Test [18] relates to Enterobacter cloacae. As to the kind of experiment: Antibacterial activity against multidrug-resistant Enterobacter cloacae Z19 clinical isolate assessed as bacterial growth inhibition by agar diffusion assay.
For test [19], the system named is Bacillus spizizenii. As to the kind of experiment: Antibacterial activity against Bacillus subtilis ATCC 6633 assessed as bacterial growth inhibition by agar diffusion assay.

SMILES strings stand for the structures. In brackets after ≈: the same amount, converted by molar mass.

With `CC(C)c1ccc2c(c1)c(O)c(C(C)C)c(=O)n2CC(C)(C)C`, the MIC is over 512 µg/mL in test [1]; 32 µg/mL in test [2]; 32 µg/mL in test [3]; over 512 µg/mL in [4]; over 512 µg/mL in [7]; 64 µg/mL in test [8]. Besides, the MIC in test [9] is over 512 µg/mL. The results for the log2FC in test [5], in test [6] and in [10] were 4, 4 and 3, respectively.
Take `CCOC(=O)c1cn2c3c(cccc3c1=O)OCC2CC` (stereo not given): the MIC in [1] is over 256 µg/mL; in test [11], over 256 µg/mL; in test [12], over 256 µg/mL; in [13], 256 µg/mL (≈ 891 µM); in test [4] it was 128 µg/mL (≈ 446 µM); in [14], over 256 µg/mL. The minimum inhibitory concentration (MIC) in test [15] was over 256 µg/mL; in test [16], over 256 µg/mL; in [17] it was over 256 µg/mL; in test [18], over 256 µg/mL; in [7], 256 µg/mL (≈ 891 µM); in [9] it was over 256 µg/mL. In addition, in test [19], the minimal inhibitory concentration (MIC) is 128 µg/mL (≈ 446 µM).
As to `CC(C)(C)n1cc(C(=O)O)c(=O)c2cc(F)c(Sc3ccccc3)cc21`, the MIC in test [1] is 16 µg/mL (≈ 43.1 µM); in [11], 128 µg/mL (≈ 345 µM); in [12], over 256 µg/mL; in test [13] it was 2 µg/mL (≈ 5.38 µM); in test [4], 8 µg/mL (≈ 21.5 µM); in test [14], over 256 µg/mL. Moreover, the MIC in [15] turned out to be 1 µg/mL (≈ 2.69 µM); in test [16] it was 2 µg/mL (≈ 5.38 µM); in [17] it was 16 µg/mL (≈ 43.1 µM); in test [18] it was 256 µg/mL (≈ 689 µM); in test [7], 32 µg/mL (≈ 86.2 µM); in test [9] it was 256 µg/mL (≈ 689 µM). Moreover, the MIC in test [19] was at most 0.12 µg/mL.
With `COc1ccc(-c2cc3c(cc2F)c(=O)c(C(=O)O)cn3C(C)(C)C)cc1`, the minimum inhibitory concentration (MIC) was over 256 µg/mL in test [1]; over 256 µg/mL in [11]; over 256 µg/mL in [12]; 0.5 µg/mL (≈ 1.35 µM) in test [13]; 16 µg/mL (≈ 43.3 µM) in test [4]; over 256 µg/mL in [14]. In addition, the minimum inhibitory concentration (MIC) in test [15] is at most 0.12 µg/mL; in test [16] it was 0.25 µg/mL (≈ 0.677 µM); in [17], 128 µg/mL (≈ 347 µM); in [18], over 256 µg/mL; in [7], 16 µg/mL (≈ 43.3 µM); in test [9] it was over 256 µg/mL. Also, in test [19], the MIC is at most 0.12 µg/mL.
On to `CC(C)(C)n1cc(C(=O)O)c(=O)c2cc(F)c(-c3cccnc3)cc21`, for which the minimum inhibitory concentration (MIC) in [1] is 2 µg/mL (≈ 5.88 µM); in test [11], 64 µg/mL (≈ 188 µM); in test [12] it was 64 µg/mL (≈ 188 µM); in test [13], 0.5 µg/mL (≈ 1.47 µM); in [4], 0.25 µg/mL (≈ 0.735 µM); in test [14], 256 µg/mL (≈ 752 µM). In addition, the minimum inhibitory concentration (MIC) is at most 0.12 µg/mL in [15]; at most 0.12 µg/mL in test [16]; 0.5 µg/mL (≈ 1.47 µM) in [17]; 256 µg/mL (≈ 752 µM) in test [18]; 0.5 µg/mL (≈ 1.47 µM) in test [7]; 4 µg/mL (≈ 11.8 µM) in test [9]. Moreover, in test [19], the MIC is at most 0.12 µg/mL.
`Cc1c(C(=O)N(C)CCN(C)C)nn(-c2ccc(Cl)cc2)c1-n1cccc1`: the MIC is over 512 µg/mL in test [1]; 16 µg/mL in test [2]; 64 µg/mL in test [3]; over 512 µg/mL in [4]; over 512 µg/mL in test [7]; 32 µg/mL in test [8]. Besides, the minimal inhibitory concentration (MIC) in test [9] is over 512 µg/mL. The log2FC in [5] amounted to 5; in [6] it was 3; in [10] it was 4.
For the molecule `CC(C)(C)n1cc(C(=O)O)c(=O)c2cc(F)c(Br)cc21`, the minimum inhibitory concentration (MIC) in test [1] is 8 µg/mL (≈ 23.4 µM); in [11] it was over 256 µg/mL; in test [12], over 256 µg/mL; in test [13], 2 µg/mL (≈ 5.85 µM); in test [4] it was 1 µg/mL (≈ 2.92 µM); in test [14], over 256 µg/mL. Besides, the MIC in test [15] is 8 µg/mL (≈ 23.4 µM); in test [16] it was 8 µg/mL (≈ 23.4 µM); in test [17], 2 µg/mL (≈ 5.85 µM); in test [18] it was over 256 µg/mL; in [7] it was 8 µg/mL (≈ 23.4 µM); in test [9], 32 µg/mL (≈ 93.5 µM). The minimal inhibitory concentration (MIC) in test [19] is at most 0.12 µg/mL.
As for `CCCCCCC(C)(C)c1cc(O)cc(OCCCCCCCC(=O)NCCO)c1`, the minimal inhibitory concentration (MIC) was over 512 µg/mL in [1]; 4 µg/mL in test [2]; 2 µg/mL in test [3]; over 512 µg/mL in [4]; over 512 µg/mL in [7]; 4 µg/mL in [8]. Also, the minimum inhibitory concentration (MIC) in test [9] was over 512 µg/mL. Also, the log2FC in test [5] was 7; in test [6] it was 8; in test [10], 7.

Usually MIC stands for the lowest concentration that inhibits growth of the organism.
